Results published in patent US20070203079A1, “Methods of using small molecule compounds for neuroprotection” (priority 2005, published 2007).
Where a name gives a salt, the structure may show the parent alone. Marks after values point to notes of the source that are not given here.

Key:
Format in all cases: in vivo, C. elegans
[1] = test system: protein misfolding and aggregation in transgenic worms; test: Preventative assay of protein aggregation (drug from hatching to L2 stage); settings: exposure from hatching to L2 stage; scored at L3 and young adult
Experimental: (§1) To see the preventative effects of the candidate drug compounds on protein misfolding and aggregation, five gravid adult worms were placed onto each drug plate and grown at 20° C. for approximately 3 days. 35-40 Fl worms at L2 stage were picked and transferred to a control plate with the same concentration of control solvent compared to the drug plate. Thirty worms at L3 stage were counted for aggregate number 8 hours later. Thirty young adults were analyzed 32 hours later.
(§2) To calculate the scaled effectiveness of special regimen of drugs on worms based on standardized decrease in protein aggregates. The following formula was used: (A−B)/(A−C)×100%, where
(§3) A=number of aggregates for worms growing on solvent control plates
(§4) B=number of aggregates for worms grown on the specific drug plate for the entire life of the worms
C=number of aggregates for worms that received pre-L2 exposure and were then removed to solvent control plates
(§5) If the regimen has no effect, the value would equal 0%. Conversely, if the regimen was as effective as raising the worms on the drug for their entire life, the value would equal 100%.

[2] = test system: protein misfolding and aggregation in transgenic worms; test: Corrective assay of protein aggregation (drug from L2 stage onward); settings: drug exposure from L2 stage onward; scored at L3 and young adult
Experimental: as §1, with “corrective effect” for “preventative effects”, “a solvent control” for “each drug”, “a” for “a control plate with the same concentration of control solvent compared to the”
as §2, §3, §4
C=number of aggregates for worms that received exposure from L2 stage (until adulthood)
as §5

[3] = test system: worms expressing Punc-54::Q82::GFP+Punc-54::torsinA (ΔE) with a mutant torsinA only; test: Protein aggregate assay in worms with mutant torsinA only
Experimental: (§6) C elegans nematodes were grown at 20° C. on NGM plates as described by Brenner (Brenner, Genetics, 1974, 77: 71-94). Several transgenic C. elegans lines were used for primary screens of the Prestwick small molecule library. A transgenic worm line expressing Punc-54::Q82-GFP; with both wild type (“wt”) (Punc=54: :torsinA) or mutant (Punc-54::torsinA(ΔE)). Torsin-A expresses a phenotype that results in visible protein aggregation under fluorescent microscope. Transgenic worms were plated on drug plates and progeny were studied for a return to soluble protein. […]
(§7) The screening assays used to identify the compounds use protein aggregation readouts to determine the specificities of molecular action. […]
(§8) The methods for the aggregate analysis assay are described in Caldwell et al. (Hum Mol Genetics, 2003, 12(3): 307-319). […] MetaMorph Software (Universal Imaging Inc.) was used for pseudocoloration of images, image overlay, and aggregate size quantitation. For each worm line analyzed, average aggregate size was determined by capturing images of all aggregates in the posterior region of 30 L3-staged animals (for Q82::GFP aggregates) or all aggregates in 30 adult animals/day (for Q19::GFP analyses) at 1000× magnification. […]

[4] = test system: Pdat-1::GFP+Pdat-1::α-synuclein+Pdat-1::torsinA worms; test: α-synuclein toxicity assay, wt torsinA
Description: (§9) We have previously shown that torsinA can prevent dopamine (“DA”) neuron degeneration resulting from overexpression of α-synuclein in the DA neurons of C. elegans, while torsinA (“ΔE”) has a reduced neuroprotection (Cao et al., J Neurosci, 2005, 25(1): 3801-3812). Specifically, only 26.1±5.3% of the worms expressing Pdat-1::GFP+Pdat-1::α-synuclein maintained all 4 wildtype CEP DA neurons as 4 day adults while the percentages of the worms expressing Pdat-1::GFP+Pdat-1::α-synuclein+Pdat-1::torsinA and Pdat-1::GFP+Pdat-1::α-synuclein+Pdat-1:: torsinA (ΔE) are 57.3±1.6% and 42.2±7.3%, respectively (Cao et al., J Neurosci, 2005, 25(1): 3801-3812) (FIG. 8).
(§10) All molecules are coded by Prestwick Library number. TorsinA-dependent compounds identified from the aggregation assay have torsinA-specific effects and, therefore, are likely to function in the same manner in the α-synuclein toxicity assay. All three α-synuclein transgenic lines were exposed to the five torsinA-dependent compounds to determine their torsinA-specificity (FIG. 9). As expected, none of these compounds had any effect in Pdat-1::GFP+Pdat-1::α-synuclein when torsinA expression is absent.

[5] = test system: Pdat-1::GFP+Pdat-1::α-synuclein+Pdat-1:: torsinA (ΔE) worms; test: α-synuclein toxicity assay, mutant torsinA
Description: as §9, §10

[6] = test system: transgenic worms containing the transgene Punc-54::Q82::GFP without any torsinA expression; test: Protein aggregate assay in worms without torsinA expression
Experimental: as §6, §7, §8

[7] = test system: worms containing Pdat-1::GFP+Pdat-1::torsinA+Pdat-1::torsinA (ΔE) after 6-OHDA exposure; test: 6-OHDA dopaminergic neurodegeneration in worms with wt and mutant torsinA; settings: wt and mutant torsinA co-expressed; 6-OHDA insult
Description: Previous studies have established that the “CEP” and “ADE” mechanosensory neurons in C. elegans undergo readily discernable neuronal degeneration after treatment with the dopamine-selective neurotoxin 6-OHDA (Nass et al, 2002). The toxicity of 6-OHDA is mediated through the formation of reactive oxygen species by the generation of hydrogen peroxide and […] via a nonenzymatic auto-oxidation process (Kumar et al., 1995; Foley and Riederer, 2000). […] This degeneration can be monitored in living animals by coexpressing with green fluorescent protein and categorized into three temporally and morphologically distinct stages, including neuronal process blebbing, cell body rounding with process loss, and cell body loss. These characteristic changes reproducibly appear in this order within a few hours, recapitulating observations in MPTP-treated monkeys and in 6-OHDA-treated rats, in which damage to striatal terminals leads to retrograde changes and precedes that of SNpc cell bodies (Berger et al., 1991; Herkenham et al., 1991). The actions of torsin protein in 6-OHDA-mediated neurodegeneration has recently been shown (Cao et al., J Neurosci, 25(1):3801-3812). Animals were treated with various concentrations of 6-OHDA and neurodegeneration was followed over time, as worms develop and age, by co-expression of a dopamine GFP marker in these transparent animals.
C. elegans nematodes were grown at 25° C. on NGM plates as described by Brenner (Brenner, Genetics, 1974, 77: 71-94). Two transgenic C. elegans lines were used for primary screens of the Prestwick small molecule library. A transgenic worm line expressing Pdat-1::GFP; with both wild type (Pdat-1::torsinA) or mutant (Pdat-1:::torsinA(ΔE)). Torsin-A expresses a phenotype that results in visible neurodegeneration after treatment with 6-OHDA. Transgenic worms were plated on drug plates and progeny were studied for morphological changes in the 8 dopaminergic neurons present in C. elegans.
Drugs were administered to C. elegans according to a standard procedure (Rand and Johnson, Methods Cell Biol, 1995, 48: 187-204) by mixing the solubilized drug with the agar medium on which the worms are grown. This mode of administration allows the continuous exposure of worms to the drug.
Each drug was first dissolved in an appropriate solvent, followed by adding the drug solution into pre-autoclaved media, with the volume of drug solution already taken into account. All drugs were tested at 0.5 mg/ml initial concentration, a few of which were toxic to worms and then tested at 0.1 mg/ml or 0.025 mg/ml concentration. Each plate was seeded with 100 μl concentrated E. coli OP50 bacteria
Age-synchronized worms were obtained by treating gravid adults with 2% sodium hypochlorite and 0.5M NaOH to isolate embryos (Lewis Fleming, 1995). These embryos were grown for 30 h at 25° C. At the L3 stage, larvae were incubated with 10 mM (50 mM) 6-OHDA and 2 mM (or 10 mM) ascorbic acid for 1 h with gentle agitation every 10 minutes. (Nass et al., 2002). The worms were then washed and spread onto NGM plates seeded with bacteria (OP50) and scored at time points ranging from 2 to 72 h after 6-OHDA exposure.
Immediately after 6-OHDA treatment, worms containing the transgenes were selected under a fluorescence dissecting microscope, based on the presence of GFP, and transferred to a fresh NGM plate seeded with OP50. For each time point, 30-40 worms were applied to a 2% agarose pad and immobilized with 3 mM levamisole. Worms were examined under a Nikon Eclipse E800 epifluorescence microscope equipped with an Endow GFP filter cube (Chroma Technology, Rockingham, Vt.). For ease of analysis, only the four CEP DA neurons in the head of the worm were scored. […]

[8] = test system: transgenic worm line Pdat-1::CAT-2; test: Neurodegeneration by overexpression of cat-2 (tyrosine hydroxylase)
Description: Overexpression of cat-2, the worm homologue for tyrosine hydroxylase, results in increased intraneuronal dopamine production and a characteristic loss of dopaminergic neurons in 75% of transgenic worms as compared to wild type (Cao et al., J Neurosci, 25(1):3801-3812). Co-expression of worm or human torsin proteins reduces the loss of dopaminergic neurons to a slight degree although neuronal degeneration is still present. The purpose of these experiments was to determine the effect of small molecule compounds in the Prestwick library in another different C. elegans model of neurodegeneration.
Worms were cultured using the same methods described above. A transgenic worm line expressing Pdat-1::CAT-2 expresses a phenotype that results in visible neurodegeneration at all developmental stages in an integrated line, in which only approximately 55% of 7 day old animals maintained all four CEP neurons. […] Compound 166 is an example of one such compound.
To further examine the neuroprotective effect of meclofenamic acid and lidocaine, we used a transgenic line (Pdat-1::CAT-2) we previously described (Cao et al., J Neurosci, 2005, 25(1): 3801-3812). Overexpression of cat-2, the C. elegans homolog of the tyrosine hydroxylase (“TH”) gene, causes a high level of DA production and as a result, DA neuron degeneration is observed (Cao et al., J Neurosci, 2005, 25(1): 3801-3812). […] We also tested whether meclofenamic acid was able to suppress CAT-2-induced neurodegeneration. […] Therefore, meclofenamic acid can protect DA neurons from degeneration produced by overexpression of the dopamine precursor, tyrosine hydroxylase.

[9] = test system: transgenic worms containing the transgene Pdat-1::GFP without any torsinA expression; test: 6-OHDA dopaminergic neurodegeneration in worms without torsinA; settings: no torsinA expression
[10] = test system: GFP::DAT-1; test: Pdat-1::GFP::DAT-1 expression within DA neurons; settings: for Neurons with cell body and dendritic/axonal GFP: water control 70%; for Neurons with cell body and dendritic/axonal GFP / Mean pixel intensity of cell bodies ± SEM (fluorescence intensity): HCl; for Mean pixel intensity of cell bodies ± SEM (fluorescence intensity): water control 1970 ± 80, compounds at 1.85, 1.49, 1.86 mM
[11] = Pdat-1::GFP::DAT-1, listed as Lidocaine hydrochloride

SMILES: CN(C)C(=O)C(CCN1CCC(O)(c2ccc(Cl)cc2)CC1)(c1ccccc1)c1ccccc1 [Compound 144, Loperamide HCl]
- preventative effect on protein aggregation [1]: seem to be beneficial
- corrective effect on protein aggregation [2]: seem to be beneficial
- reduction of aggregation [3]: reduced aggregation
- enhanced wild type DA neuron survival [4]: failed to show any significant neuroprotection
- enhanced DA neuron survival [5]: 39.5±1.4%

SMILES: NCc1ccc(S(N)(=O)=O)cc1 [Compound 166, Mafenide]
- reduction of protein aggregates [6]: reduced the presence of protein aggregates
- neuroprotection of dopaminergic neurons against 6-OHDA [7]: little to no neuroprotection
- neuroprotective action on dopaminergic neurons overexpressing cat-2 ([8]; Pdat-1::CAT-2, result in words): demonstrated a reduction in the standardized decrease in dopaminergic neurodegeneration

SMILES: CCN(CC)CC(=O)Nc1c(C)cccc1C [Compound 50, lidocaine HCl]
- reduction of 6-OHDA-mediated neurodegeneration [9]: reduced the 6-OHDA-mediated neurodegeneration
- Worms with no GFP ([10]; Pdat-1::GFP::DAT-1, water control 0%): 0%
- Neurons with cell body GFP only ([10]; Pdat-1::GFP::DAT-1, water control 30%): 70%^e
- Neurons with cell body and dendritic/axonal GFP ([10]; Pdat-1::GFP::DAT-1): 30%
- Neurons with cell body and dendritic/axonal GFP [10, 11]: 30%^d
- Mean pixel intensity of cell bodies ± SEM (fluorescence intensity) ([10]; Pdat-1::GFP::DAT-1): 1612 A.U.
- Mean pixel intensity of cell bodies ± SEM (fluorescence intensity) [10, 11]: 1612 ± 78 A.U.
- effect on GFP::DAT-1 level ([10]; result in words): can down-regulate the level of DAT-1 protein directly
- neuroprotective effect against CAT-2-induced neurodegeneration ([8]; Pdat-1::CAT-2): −7.9%
